# Where two headings read alike, the source gives them in different places.
# What was measured:
# [1] = test system: forty-four human cancer cell lines; experiment: Cell proliferation assay (ATPlite, 72 hours) in the 44 cell line Oncolines panel; type: cell-based; conditions: Homo sapiens
# [2] = target: panel of more than 300 wild-type and mutant kinases (313 kinase panel) (Homo sapiens, UniProt P00533, L861Q); experiment: Kinase profiling in a biochemical assay panel (mobility shift assays and ELISA), %-inhibition at 1 μM; selectivity entropy; conditions: kinase EGFR(L861Q); compound at 1 μM
# [3] = target: panel of more than 300 wild-type and mutant kinases (313 kinase panel) (Homo sapiens, UniProt Q9UM73, R1275Q); experiment: as above; conditions: kinase ALK(R1275Q); 1 μM compound
# [4] = target: panel of more than 300 wild-type and mutant kinases (313 kinase panel) (Homo sapiens, UniProt P00533); experiment: as above; conditions: kinase EGFR; compound at 1 μM
# [5] = target: panel of more than 300 wild-type and mutant kinases (313 kinase panel) (Homo sapiens, UniProt P09619); experiment: as above; conditions: kinase PDGFRβ; 1 μM
# [6] = target: panel of more than 300 wild-type and mutant kinases (313 kinase panel) (Homo sapiens, UniProt P15056); experiment: as above; conditions: kinase BRAF; 1 μM compound
# [7] = target: panel of more than 300 wild-type and mutant kinases (313 kinase panel) (Homo sapiens, UniProt P00533, L858R/T790M); experiment: as above; conditions: kinase EGFR(T790M/L858R); compound at 1 μM
# [8] = target: panel of more than 300 wild-type and mutant kinases (313 kinase panel) (Homo sapiens, UniProt P35968); experiment: as above; conditions: kinase KDR; compound at 1 μM
# [9] = target: panel of more than 300 wild-type and mutant kinases (313 kinase panel) (Homo sapiens, UniProt P00533, L858R); experiment: as above; conditions: kinase EGFR(L858R); compound at 1 μM
# [10] = target: panel of more than 300 wild-type and mutant kinases (313 kinase panel) (Homo sapiens, UniProt P11362, V561M); experiment: as above; conditions: kinase FGFR1(V561M); compound at 1 μM
# [11] = target: panel of more than 300 wild-type and mutant kinases (313 kinase panel) (Homo sapiens, UniProt P00519, E255K); experiment: as above; conditions: kinase ABL(E255K); 1 μM compound
# [12] = target: panel of more than 300 wild-type and mutant kinases (313 kinase panel) (Homo sapiens, UniProt P00533, T790M); experiment: as above; conditions: kinase EGFR(T790M); compound at 1 μM
# [13] = target: panel of more than 300 wild-type and mutant kinases (313 kinase panel) (Homo sapiens, UniProt P07947, T348I); experiment: as above; conditions: kinase YES(T348I); compound at 1 μM
# [14] = target: panel of more than 300 wild-type and mutant kinases (313 kinase panel) (Homo sapiens, UniProt P22612); experiment: as above; conditions: kinase PKACγ; 1 μM
# [15] = target: panel of more than 300 wild-type and mutant kinases (313 kinase panel) (Homo sapiens, UniProt P00519); experiment: as above; conditions: kinase ABL; 1 μM compound
# [16] = A 172, read-out: cell panel IC50, A-172
# [17] = A204, cell line A-204, read-out: cell panel IC50, A-204
# [18] = A498, read-out: cell panel IC50, A-498
# [19] = A549, read-out: cell panel IC50, A-549
# [20] = A-375, cell line A375, read-out: cell panel IC50, A375
# [21] = A-427, read-out: cell panel IC50, A-427
# [22] = AU565, read-out: cell panel IC50, AU-565
# [23] = BT-549, read-out: cell panel IC50, BT-549
# [24] = HCT-116, read-out: cell panel IC50, HCT-116
# [25] = K562, read-out: cell panel IC50, K-562
# [26] = LS174T, read-out: cell panel IC50, LS 174T
# [27] = SHP77, cell line SHP-77, read-out: cell panel IC50, SHP-77
# [28] = SW-620, cell line SW620, read-out: cell panel IC50, SW620
# [29] = U2OS, cell line U-2 OS, read-out: cell panel IC50, U-2 OS
# [30] = cell line J82, read-out: cell panel IC50, J82
# [31] = cell line PA-1, read-out: cell panel IC50, PA-1
# [32] = cell line SJCRH30, read-out: cell panel IC50, SJCRH30
# [33] = cell line SR, read-out: cell panel IC50, SR
# [34] = U-87 MG cell line, ATPlite, 72 hours, read-out: IC50 in cell proliferation assay (table S5 cellpanel data)
# [35] = cell line 769-P, read-out: cell panel IC50, 769-P
# [36] = cell line 786-0, read-out: cell panel IC50, 786-0
# [37] = cell line ACHN, read-out: cell panel IC50, ACHN
# [38] = cell line AN3 CA, read-out: cell panel IC50, AN3 CA
# [39] = cell line BT-20, read-out: cell panel IC50, BT-20
# [40] = cell line BxPC-3, read-out: cell panel IC50, BxPC-3
# [41] = cell line C-33 A, read-out: cell panel IC50, C-33 A
# [42] = cell line CAL 27, read-out: cell panel IC50, CAL 27
# [43] = cell line CCRF-CEM, read-out: cell panel IC50, CCRF-CEM
# [44] = cell line DLD-1, read-out: cell panel IC50, DLD-1
# [45] = cell line FaDu, read-out: cell panel IC50, FaDu
# [46] = cell line HCT-15, read-out: cell panel IC50, HCT-15
# [47] = cell line Hs 578T, read-out: cell panel IC50, Hs 578T
# [48] = cell line Jurkat E6.1, read-out: cell panel IC50, Jurkat E6.1
# [49] = cell line LoVo, read-out: cell panel IC50, LoVo
# [50] = cell line MG-63, read-out: cell panel IC50, MG-63
# [51] = cell line MOLT-4, read-out: cell panel IC50, MOLT-4
# [52] = cell line MeWo, read-out: cell panel IC50, MeWo
# [53] = cell line NCI-H82, read-out: cell panel IC50, NCI-H82
# [54] = cell line NCI-H460, read-out: cell panel IC50, NCI-H460
# [55] = cell line OVCAR-3, read-out: cell panel IC50, OVCAR-3
# [56] = cell line RPMI-7951, read-out: cell panel IC50, RPMI-7951
# [57] = cell line SK-N-AS, read-out: cell panel IC50, SK-N-AS
# [58] = cell line SW48, read-out: cell panel IC50, SW48
# [59] = cell line SW480, read-out: cell panel IC50, SW480
# panel of more than 300 wild-type and mutant kinases (313 kinase panel) (Homo sapiens, UniProt P00533, T790M), sequence (P00533 25-1210 T790M): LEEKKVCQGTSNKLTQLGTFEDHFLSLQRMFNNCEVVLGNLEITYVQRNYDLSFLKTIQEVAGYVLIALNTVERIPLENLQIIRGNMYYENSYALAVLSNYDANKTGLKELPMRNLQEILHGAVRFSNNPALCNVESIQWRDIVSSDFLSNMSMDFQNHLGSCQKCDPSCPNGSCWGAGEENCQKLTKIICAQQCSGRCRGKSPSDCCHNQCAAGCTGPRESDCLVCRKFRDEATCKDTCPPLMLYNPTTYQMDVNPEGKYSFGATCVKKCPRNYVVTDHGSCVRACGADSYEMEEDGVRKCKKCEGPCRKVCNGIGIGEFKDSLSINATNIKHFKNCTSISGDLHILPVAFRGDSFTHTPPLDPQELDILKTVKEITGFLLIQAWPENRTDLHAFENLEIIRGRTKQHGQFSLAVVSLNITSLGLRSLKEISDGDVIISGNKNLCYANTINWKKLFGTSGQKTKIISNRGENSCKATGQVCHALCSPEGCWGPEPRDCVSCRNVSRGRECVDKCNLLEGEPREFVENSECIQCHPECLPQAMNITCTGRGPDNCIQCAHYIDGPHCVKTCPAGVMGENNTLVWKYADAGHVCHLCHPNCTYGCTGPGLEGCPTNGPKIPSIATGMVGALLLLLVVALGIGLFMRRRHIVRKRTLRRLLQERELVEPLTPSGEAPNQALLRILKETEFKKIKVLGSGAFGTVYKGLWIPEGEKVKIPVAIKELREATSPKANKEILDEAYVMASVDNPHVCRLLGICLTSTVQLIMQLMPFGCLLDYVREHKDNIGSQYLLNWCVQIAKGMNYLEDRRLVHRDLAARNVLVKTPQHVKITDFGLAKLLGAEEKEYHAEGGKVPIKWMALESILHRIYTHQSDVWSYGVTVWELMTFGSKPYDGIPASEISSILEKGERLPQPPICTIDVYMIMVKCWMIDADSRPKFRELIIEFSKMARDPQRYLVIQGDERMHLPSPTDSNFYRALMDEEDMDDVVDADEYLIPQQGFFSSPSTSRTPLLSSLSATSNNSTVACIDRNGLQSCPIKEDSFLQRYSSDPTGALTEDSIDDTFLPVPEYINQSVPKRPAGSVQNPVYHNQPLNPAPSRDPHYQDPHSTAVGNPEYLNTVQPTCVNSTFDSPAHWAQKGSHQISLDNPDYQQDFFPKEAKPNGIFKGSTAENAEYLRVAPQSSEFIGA
# panel of more than 300 wild-type and mutant kinases (313 kinase panel) (Homo sapiens, UniProt P00533, L858R/T790M), sequence (P00533 25-1210 T790M/L858R): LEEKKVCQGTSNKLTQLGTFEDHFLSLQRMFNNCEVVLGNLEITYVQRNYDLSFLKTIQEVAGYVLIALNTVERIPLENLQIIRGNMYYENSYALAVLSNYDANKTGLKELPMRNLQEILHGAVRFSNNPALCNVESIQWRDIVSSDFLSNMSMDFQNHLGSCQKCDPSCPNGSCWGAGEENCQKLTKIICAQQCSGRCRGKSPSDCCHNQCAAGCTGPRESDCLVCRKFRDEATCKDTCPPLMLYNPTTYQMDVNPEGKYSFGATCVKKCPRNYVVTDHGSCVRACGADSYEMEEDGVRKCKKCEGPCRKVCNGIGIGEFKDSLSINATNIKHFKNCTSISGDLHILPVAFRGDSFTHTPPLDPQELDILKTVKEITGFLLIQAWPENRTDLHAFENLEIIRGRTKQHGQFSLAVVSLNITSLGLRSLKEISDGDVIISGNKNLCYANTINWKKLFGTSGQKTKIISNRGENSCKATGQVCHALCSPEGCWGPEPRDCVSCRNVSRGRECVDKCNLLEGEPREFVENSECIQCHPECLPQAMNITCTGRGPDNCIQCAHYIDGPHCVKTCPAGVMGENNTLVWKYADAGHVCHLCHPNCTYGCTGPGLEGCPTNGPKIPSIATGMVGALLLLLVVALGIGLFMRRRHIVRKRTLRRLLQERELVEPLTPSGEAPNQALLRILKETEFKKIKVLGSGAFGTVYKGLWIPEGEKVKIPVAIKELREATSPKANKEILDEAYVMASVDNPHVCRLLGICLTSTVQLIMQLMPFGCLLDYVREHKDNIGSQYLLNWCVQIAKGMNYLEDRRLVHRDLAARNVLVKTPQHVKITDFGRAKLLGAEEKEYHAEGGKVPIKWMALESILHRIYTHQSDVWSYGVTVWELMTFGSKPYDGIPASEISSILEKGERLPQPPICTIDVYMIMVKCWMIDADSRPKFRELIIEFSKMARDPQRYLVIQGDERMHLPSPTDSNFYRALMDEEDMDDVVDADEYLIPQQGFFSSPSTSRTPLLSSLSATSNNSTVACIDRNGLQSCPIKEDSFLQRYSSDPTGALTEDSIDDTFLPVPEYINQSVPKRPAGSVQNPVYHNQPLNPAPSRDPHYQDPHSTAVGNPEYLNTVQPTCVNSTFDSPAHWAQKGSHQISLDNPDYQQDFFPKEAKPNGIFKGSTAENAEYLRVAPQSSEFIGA
# panel of more than 300 wild-type and mutant kinases (313 kinase panel) (Homo sapiens, UniProt Q9UM73, R1275Q), sequence (Q9UM73 19-1620 R1275Q): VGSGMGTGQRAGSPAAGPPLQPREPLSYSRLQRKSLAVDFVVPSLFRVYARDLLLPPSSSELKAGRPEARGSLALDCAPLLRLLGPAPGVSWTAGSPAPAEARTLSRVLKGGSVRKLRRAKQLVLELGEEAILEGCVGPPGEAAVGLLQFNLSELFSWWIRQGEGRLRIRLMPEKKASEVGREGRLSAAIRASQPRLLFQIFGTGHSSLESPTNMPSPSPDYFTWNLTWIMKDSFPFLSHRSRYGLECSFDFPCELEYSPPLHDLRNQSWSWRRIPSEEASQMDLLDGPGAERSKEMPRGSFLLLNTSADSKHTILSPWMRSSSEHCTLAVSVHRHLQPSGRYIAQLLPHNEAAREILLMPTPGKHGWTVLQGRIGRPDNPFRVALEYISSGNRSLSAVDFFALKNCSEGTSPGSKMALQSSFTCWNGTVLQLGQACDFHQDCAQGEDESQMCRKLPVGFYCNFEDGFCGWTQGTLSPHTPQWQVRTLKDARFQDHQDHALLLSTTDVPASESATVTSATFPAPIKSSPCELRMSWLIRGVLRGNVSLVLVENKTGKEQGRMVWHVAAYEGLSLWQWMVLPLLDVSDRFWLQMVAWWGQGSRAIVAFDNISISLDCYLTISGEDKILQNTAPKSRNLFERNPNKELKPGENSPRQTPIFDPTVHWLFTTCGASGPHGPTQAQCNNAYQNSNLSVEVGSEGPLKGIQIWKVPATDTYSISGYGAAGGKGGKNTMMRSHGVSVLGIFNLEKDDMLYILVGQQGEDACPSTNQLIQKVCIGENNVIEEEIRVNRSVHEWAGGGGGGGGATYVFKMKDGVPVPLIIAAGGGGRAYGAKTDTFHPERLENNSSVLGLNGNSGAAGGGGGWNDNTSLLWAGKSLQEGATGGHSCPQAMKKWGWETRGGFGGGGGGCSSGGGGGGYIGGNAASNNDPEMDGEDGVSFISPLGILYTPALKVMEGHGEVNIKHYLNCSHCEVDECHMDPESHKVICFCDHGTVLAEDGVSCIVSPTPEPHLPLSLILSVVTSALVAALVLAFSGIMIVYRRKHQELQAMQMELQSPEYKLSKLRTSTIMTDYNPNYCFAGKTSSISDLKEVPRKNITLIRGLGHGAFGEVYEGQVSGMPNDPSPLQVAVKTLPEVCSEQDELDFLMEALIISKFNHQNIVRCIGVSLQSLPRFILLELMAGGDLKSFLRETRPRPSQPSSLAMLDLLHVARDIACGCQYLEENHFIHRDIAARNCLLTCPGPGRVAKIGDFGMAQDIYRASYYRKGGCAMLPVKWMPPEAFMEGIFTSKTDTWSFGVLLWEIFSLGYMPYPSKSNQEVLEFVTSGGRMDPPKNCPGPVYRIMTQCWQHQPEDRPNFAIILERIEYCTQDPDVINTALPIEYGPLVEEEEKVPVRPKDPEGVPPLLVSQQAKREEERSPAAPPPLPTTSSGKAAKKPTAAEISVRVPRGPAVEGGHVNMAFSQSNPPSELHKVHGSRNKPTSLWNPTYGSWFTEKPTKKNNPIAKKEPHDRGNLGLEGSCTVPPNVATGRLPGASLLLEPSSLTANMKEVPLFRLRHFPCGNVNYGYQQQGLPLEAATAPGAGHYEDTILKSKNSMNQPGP
# panel of more than 300 wild-type and mutant kinases (313 kinase panel) (Homo sapiens, UniProt P00519), sequence (P00519 whole entry, change not shown): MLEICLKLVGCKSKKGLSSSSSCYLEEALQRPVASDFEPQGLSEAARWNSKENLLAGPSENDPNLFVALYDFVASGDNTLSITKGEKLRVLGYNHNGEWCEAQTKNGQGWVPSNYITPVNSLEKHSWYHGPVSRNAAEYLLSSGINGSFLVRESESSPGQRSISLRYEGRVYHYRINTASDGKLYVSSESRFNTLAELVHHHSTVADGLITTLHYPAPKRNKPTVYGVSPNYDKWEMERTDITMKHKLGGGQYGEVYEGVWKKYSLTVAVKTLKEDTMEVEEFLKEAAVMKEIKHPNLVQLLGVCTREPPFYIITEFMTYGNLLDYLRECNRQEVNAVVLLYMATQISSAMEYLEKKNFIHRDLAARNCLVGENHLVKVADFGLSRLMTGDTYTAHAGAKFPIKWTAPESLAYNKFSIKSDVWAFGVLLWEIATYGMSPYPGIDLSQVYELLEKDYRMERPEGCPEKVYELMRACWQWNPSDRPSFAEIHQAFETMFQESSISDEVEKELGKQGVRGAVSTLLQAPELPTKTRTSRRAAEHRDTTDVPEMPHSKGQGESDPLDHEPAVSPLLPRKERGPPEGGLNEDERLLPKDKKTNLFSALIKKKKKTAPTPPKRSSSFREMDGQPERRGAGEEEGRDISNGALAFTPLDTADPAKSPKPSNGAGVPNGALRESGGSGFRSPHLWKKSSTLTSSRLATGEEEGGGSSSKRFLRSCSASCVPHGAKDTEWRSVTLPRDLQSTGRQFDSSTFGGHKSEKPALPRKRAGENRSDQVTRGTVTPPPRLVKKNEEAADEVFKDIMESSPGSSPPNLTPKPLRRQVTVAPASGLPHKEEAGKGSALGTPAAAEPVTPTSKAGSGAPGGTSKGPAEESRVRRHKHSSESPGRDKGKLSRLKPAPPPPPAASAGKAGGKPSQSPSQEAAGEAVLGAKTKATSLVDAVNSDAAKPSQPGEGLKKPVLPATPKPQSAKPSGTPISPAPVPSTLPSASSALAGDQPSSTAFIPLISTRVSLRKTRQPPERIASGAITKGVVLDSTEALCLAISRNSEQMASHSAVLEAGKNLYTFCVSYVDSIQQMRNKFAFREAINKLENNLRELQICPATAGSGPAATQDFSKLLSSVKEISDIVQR
smiles,measurement,setting,value
CCCS(=O)(=O)Nc1ccc(F)c(C(=O)c2c[nH]c3ncc(-c4ccc(Cl)cc4)cc23)c1F [vemurafenib],IC50,[1]; [16],> 31.6 µM
same,IC50,[1]; [17],> 31.6 µM
same,IC50,[1]; [18],20.6 µM
same,IC50,[1]; [19],29.2 µM
same,IC50,[1]; [20],3.98 µM
same,IC50,[1]; [21],> 31.6 µM
same,IC50,[1]; [22],> 31.6 µM
same,IC50,[1]; [23],26.9 µM
same,IC50,[1]; [24],> 31.6 µM
same,IC50,[1]; [25],29.9 µM
same,IC50,[1]; [26],> 31.6 µM
same,IC50,[1]; [27],> 31.6 µM
same,IC50,[1]; [28],31.6 µM
same,IC50,[1]; [29],> 31.6 µM
same,IC50,[1]; [30],> 31.6 µM
same,IC50,[1]; [31],10.3 µM
same,IC50,[1]; [32],> 31.6 µM
same,IC50,[1]; [33],8.86 µM
same,IC50,[1]; [34],> 31.6 µM
same,IC50,[1]; [35],> 31.6 µM
same,IC50,[1]; [36],22.6 µM
same,IC50,[1]; [37],24 µM
same,IC50,[1]; [38],> 31.6 µM
same,IC50,[1]; [39],> 31.6 µM
same,IC50,[1]; [40],14.2 µM
same,IC50,[1]; [41],> 31.6 µM
same,IC50,[1]; [42],> 31.6 µM
same,IC50,[1]; [43],23 µM
same,IC50,[1]; [44],> 31.6 µM
same,IC50,[1]; [45],> 31.6 µM
same,IC50,[1]; [46],30.6 µM
same,IC50,[1]; [47],24.8 µM
same,IC50,[1]; [48],27.1 µM
same,IC50,[1]; [49],31.3 µM
same,IC50,[1]; [50],> 31.6 µM
same,IC50,[1]; [51],31.1 µM
same,IC50,[1]; [52],> 31.6 µM
same,IC50,[1]; [53],30.4 µM
same,IC50,[1]; [54],30.4 µM
same,IC50,[1]; [55],> 31.6 µM
same,IC50,[1]; [56],20.9 µM
same,IC50,[1]; [57],> 31.6 µM
same,IC50,[1]; [58],> 31.6 µM
same,IC50,[1]; [59],22.5 µM
same,%-inhibition of EGFR(L861Q),[2],5%
same,"%-inhibition, ALK(R1275Q)",[3],3.57%
same,%-inhibition of EGFR,[4],7%
same,%-inhibition of PDGFRβ,[5],33%
same,"%-inhibition, BRAF",[6],99%
same,%-inhibition of EGFR(T790M/L858R),[7],5%
same,%-inhibition of KDR,[8],13%
same,%-inhibition of EGFR(L858R),[9],0.505%
same,%-inhibition of FGFR1(V561M),[10],5.37%
same,"%-inhibition, ABL(E255K)",[11],2.49%
same,%-inhibition of EGFR(T790M),[12],-5.57%
same,%-inhibition of YES(T348I),[13],4%
same,%-inhibition of PKACγ,[14],-3%
same,"%-inhibition, ABL",[15],15%
CNC(=O)c1cc(Oc2ccc(NC(=O)Nc3ccc(Cl)c(C(F)(F)F)c3)c(F)c2)ccn1 [regorafenib],IC50,[1]; [16],3.95 µM
same,IC50,[1]; [17],3.01 µM
same,IC50,[1]; [18],3.41 µM
same,IC50,[1]; [19],2.92 µM
same,IC50,[1]; [20],3.56 µM
same,IC50,[1]; [21],8.73 µM
same,IC50,[1]; [22],0.687 µM
same,IC50,[1]; [23],16.6 µM
same,IC50,[1]; [24],3.51 µM
same,IC50,[1]; [25],4.17 µM
same,IC50,[1]; [26],3.76 µM
same,IC50,[1]; [27],> 31.6 µM
same,IC50,[1]; [28],9.66 µM
same,IC50,[1]; [29],3.08 µM
same,IC50,[1]; [30],3.27 µM
same,IC50,[1]; [31],2.96 µM
same,IC50,[1]; [32],10.7 µM
same,IC50,[1]; [33],3.1 µM
same,IC50,[1]; [34],11.8 µM
same,IC50,[1]; [35],2.9 µM
same,IC50,[1]; [36],7.29 µM
same,IC50,[1]; [37],1.82 µM
same,IC50,[1]; [38],5.84 µM
same,IC50,[1]; [39],3.93 µM
same,IC50,[1]; [40],4 µM
same,IC50,[1]; [41],1.02 µM
same,IC50,[1]; [42],1.54 µM
same,IC50,[1]; [43],9.54 µM
same,IC50,[1]; [44],3.54 µM
same,IC50,[1]; [45],1.62 µM
same,IC50,[1]; [46],3.15 µM
same,IC50,[1]; [47],22.6 µM
same,IC50,[1]; [48],2.52 µM
same,IC50,[1]; [49],2.7 µM
same,IC50,[1]; [50],3.63 µM
same,IC50,[1]; [51],3.31 µM
same,IC50,[1]; [52],30.8 µM
same,IC50,[1]; [53],3.58 µM
same,IC50,[1]; [54],3.95 µM
same,IC50,[1]; [55],3.63 µM
same,IC50,[1]; [56],5.88 µM
same,IC50,[1]; [57],6.43 µM
same,IC50,[1]; [58],1.01 µM
same,IC50,[1]; [59],> 31.6 µM
same,%-inhibition of EGFR(L861Q),[2],6%
same,"%-inhibition, ALK(R1275Q)",[3],5%
same,%-inhibition of EGFR,[4],12%
same,%-inhibition of EGFR(T790M/L858R),[7],1.68%
same,%-inhibition of KDR,[8],103%
same,%-inhibition of EGFR(L858R),[9],2.24%
same,"%-inhibition, ABL(E255K)",[11],33%
same,%-inhibition of EGFR(T790M),[12],-7.38%
same,%-inhibition of YES(T348I),[13],40%
same,%-inhibition of PKACγ,[14],-0.823%
same,"%-inhibition, ABL",[15],68%

# Source: publication PMC3961306, “Comparison of the Cancer Gene Targeting and Biochemical Selectivities of All Targeted Kinase Inhibitors Approved for Clinical Use” (PLoS ONE, 2014)
